“And” between values parts separate entries of the source, which are not always exact repeats. Identical values can stand only once. Like-named read-outs stand apart in the source and are kept apart here.

In one assay the test system is BJ-1 normal cell line. The assay is described as follows: MTT cytotoxicity assay, normal BJ-1 fibroblasts (safety profile). In kind it is cell-based. The settings on record: Homo sapiens; BJ-1 normal fibroblast-derived cells; 48 h incubation; mean of three values; read-out: IC50 (mean±SD) BJ-1. How it is done:
[…]. The safety profiles of all derivatives were assessed through cytotoxic evaluation using human fibroblast-derived BJ-1 normal cell lines. […].
(§1) The recently incorporated quinazolinone-based targets 1–4, 6–13 underwent evaluation for their cytotoxic effects with in vitro employing MTT technique, according to the procedure that has been published[48]–[50], utilizing human fibroblast-derived BJ-1 normal cell line, and human cancer liver HepG-2, breast MCF-7, and colon HCT-116 cell lines. These cell lines were purchased from Karolinska Center, Department of Oncology and Pathology, Karolinska Institute and Hospital, Stockholm, Sweden, There were further details in the supplemental file.
(§2) The cell lines were obtained from Karolinska Center, Department of Oncology and Pathology, Karolinska Institute and Hospital, Stockholm, Sweden as follows: human liver HepG-2, breast MCF-7, and colorectal HCT-116 cancer cell lines and human fibroblast-derived BJ-1 normal cell line. Exponentially, cells were placed in 10^4 cells/ well for 24 h, and then add fresh medium which containing different concentration of the tested sample. Serial two-fold dilution of the tested sample were added using a multichannel pipette. Moreover, all cells were cultivated at 37 °C, 5% CO2 and 95% humidity. Also, incubation of control cells occurred at 37 °C. However, after incubation for 24 h different concentrations of sample (25, 12.5, 6.25 and 3.125 µM) were added and continued the incubation for 48 h, then, add the crystal violet solution 1% to each well for 0.5 h to examine viable cells. Rinse the wells using water until no stain. After that, add 30% glacial acetic acid to all wells with shaking plates on Microplate reader (TECAN, Inc.) to measure the absorbance, using a test wavelength of 490 nm. Besides, compare the treated samples with the control cell. The cytotoxicity was estimated by IC50 in (μM), the concentration that inhibits 50% of growth of cancer cell.
Background: Tetrazolium dyes change colour on reduction, which living cells bring about.

For another assay, the target named is VEGFR-2 (Homo sapiens, UniProt P35968). The assay is described as follows: In vitro VEGFR-2 inhibition assay (ELISA). The settings on record: read-out: IC50 (mean ± SD) VEGFR-2; average of three values. (ELISA stands for enzyme-linked immunosorbent assay.)
The subject of another assay is Bax. The assay is described as follows: Bax level in HCT-116 cells. In kind it is cell-based, human. From the text:
(§3) The methods previously described for the appealing quinazolinone-1,2,3-triazole glycoside 13 was used to clearly show the levels of p53, Bax, Bcl-2, and in HCT-116 cells.
(§4) The levels of the apoptotic marker Bax and anti-apoptotic marker Bcl-2 were estimated using BIO RAD iScript TM One-Step RT-PCR kit with SYBR® Green. The procedure of the used kit was done according to the manufacturer’s instructions.

For a further assay, the system named is HCT-116 cell line. Kind of assay: MTT cytotoxicity assay, HCT-116. Format: cell-based. The settings on record: Homo sapiens; HCT-116 colorectal cancer cells; 48 h incubation; mean of three values; read-out: IC50 (mean±SD) HCT-116.
Source text: as §1, §2

The target in the next assay is EGFR (Homo sapiens, UniProt P00533). Kind of assay: In vitro EGFR inhibition assay (Kinase-Glo luminescence). Background: In Kinase-Glo more light means more ATP remaining.
A further assay deals with HepG-2 cell line. The assay is described as follows: MTT cytotoxicity assay, HepG-2. Format: cell-based. The settings on record: Homo sapiens, HepG2; HepG-2 liver cancer cells; 48 h incubation; mean of three values; read-out: IC50 (mean±SD) HepG-2.
Source text: as §1, §2

In another assay the test system is Bcl-2. Kind of assay: Bcl-2 level in HCT-116 cells. In kind it is cell-based, human.
Source text: as §3, §4

Assay [1] has as its system HCT-116 cells. The assay is described as follows: Cell cycle analysis by flow cytometry (PI). In kind it is cell-based, human. How it is done:
(§5) The most powerful cytotoxic derivative, quinazolinone-1,2,3-triazole glycoside 13, underwent 24-hour treatment at a dose of 5.40 µM to find out if it caused cell death by the apoptotic pathway in HCT-116 cells. Using annexin-V labeling, flow cytometry was employed to further analyze the cells (Figs. 4, 5 and 6).
(§6) The examination of apoptosis and the interpretation of the cell cycle were described[37] utilizing flow cytometry. HCT-116 cells were treated with quinacolinone-1,2,3-triazole glycoside 13 for a full day, and after that, the cells were cultured at 37 °C. There were more details added to supporting documentation .
(§7) Cell cycle analysis and apoptosis study were carried out using flow cytometry. HCT-116 cells were seeded at 8×10^4 and incubated at 37°C in 5% CO2 overnight. After treatment with the tested compound 10 for 24 h, cell pellets were collected and centrifuged (300 g, 5 min). For cell cycle analysis cell pellets were fixed with 70% ethanol on ice for 15 min and collected again. The pellets were incubated with propidium iodide (PI) staining solution at room temperature for 1 h and analyzed by a Gallios flow cytometer (Beckman Coulter, Brea, CA, USA). Apoptosis detection was carried out by FITC AnnexinV/PI commercial kit (Becton Dickenson, Franklin Lakes, NJ, USA) following the manufacturer protocol. The samples were analyzed by fluorescence-activated cell sorting (FACS) with a Gallios flow cytometer (Beckman Coulter, Brea, CA, USA) within 1 h after staining. Data were analyzed using Kaluza v 1.2 (Beckman Coulter).

In a further assay the test system is p53. The assay is described as follows: p53 level in HCT-116 cells (ELISA). Format: cell-based, human. The protocol: as §3
Human p53 present in HCT-116 cells was determined; using Human p53 ELISA-Kit (CS0070 Sigma) read using spectrophotometer at 450 nm against untreated control cells (negative control) applying the standard protocols of the manufacturers. The samples or standard having human p53 bind to antibodies adsorbed to the microwells. Addition of biotin-conjugated was followed by incubation and addition of dispense of unbound biotin-conjugated streptavidin HRP. Then, the reaction was terminated by adding acid, and the absorbance was measured at 450 nm.

Assay [2] concerns HCT-116 cells. The assay is described as follows: Apoptosis analysis by annexin V-FITC/PI flow cytometry. Format: cell-based, human. To be noted: 5.40 µM, 24 h. How it is done:
as §5, §6, §7

Assay [3] deals with MCF-7 cell line. The assay is described as follows: MTT cytotoxicity assay, MCF-7. Format: cell-based. To be noted: Homo sapiens, MCF7; MCF-7 breast cancer cells; 48 h incubation; mean of three values; read-out: IC50 (mean±SD) MCF-7.
Source text: as §1, §2

Assay [4] deals with MCF-7 cell line. Also noted: method as in PMID 37453330. The settings on record: cellular activity; read-out: IC50 against MCF-7 cell line; cited from earlier work.

Chain of EGFR (P00533 25-1210): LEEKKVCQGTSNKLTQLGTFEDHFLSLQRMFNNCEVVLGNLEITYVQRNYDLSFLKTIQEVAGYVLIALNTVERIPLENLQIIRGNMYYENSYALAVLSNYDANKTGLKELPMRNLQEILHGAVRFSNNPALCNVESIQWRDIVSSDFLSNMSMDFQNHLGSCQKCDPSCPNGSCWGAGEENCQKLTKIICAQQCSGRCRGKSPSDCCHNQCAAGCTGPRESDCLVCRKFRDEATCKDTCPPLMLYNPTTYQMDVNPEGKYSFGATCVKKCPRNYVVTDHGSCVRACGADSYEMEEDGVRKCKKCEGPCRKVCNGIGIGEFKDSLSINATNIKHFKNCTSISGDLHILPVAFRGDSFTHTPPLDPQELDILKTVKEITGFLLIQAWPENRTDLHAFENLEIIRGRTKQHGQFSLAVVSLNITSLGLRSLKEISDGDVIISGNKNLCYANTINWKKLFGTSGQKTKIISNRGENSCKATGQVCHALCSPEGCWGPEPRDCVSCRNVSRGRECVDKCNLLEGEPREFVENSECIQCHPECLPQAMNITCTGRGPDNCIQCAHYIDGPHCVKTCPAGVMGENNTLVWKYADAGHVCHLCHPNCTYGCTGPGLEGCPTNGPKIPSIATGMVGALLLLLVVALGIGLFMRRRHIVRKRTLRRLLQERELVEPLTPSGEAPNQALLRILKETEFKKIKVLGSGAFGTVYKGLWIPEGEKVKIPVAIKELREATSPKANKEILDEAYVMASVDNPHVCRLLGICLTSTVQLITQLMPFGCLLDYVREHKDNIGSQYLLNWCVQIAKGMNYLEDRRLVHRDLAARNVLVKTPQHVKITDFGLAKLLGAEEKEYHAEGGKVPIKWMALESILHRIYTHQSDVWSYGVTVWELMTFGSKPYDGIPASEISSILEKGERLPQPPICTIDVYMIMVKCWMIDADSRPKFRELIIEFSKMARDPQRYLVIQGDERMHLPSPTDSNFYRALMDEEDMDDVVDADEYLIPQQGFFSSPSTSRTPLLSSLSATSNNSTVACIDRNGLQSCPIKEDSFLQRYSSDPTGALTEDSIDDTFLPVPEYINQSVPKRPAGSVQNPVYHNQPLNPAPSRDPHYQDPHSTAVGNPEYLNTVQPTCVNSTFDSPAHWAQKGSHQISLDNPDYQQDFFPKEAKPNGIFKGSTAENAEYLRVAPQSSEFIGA
Chain of VEGFR-2 (P35968 20-1356): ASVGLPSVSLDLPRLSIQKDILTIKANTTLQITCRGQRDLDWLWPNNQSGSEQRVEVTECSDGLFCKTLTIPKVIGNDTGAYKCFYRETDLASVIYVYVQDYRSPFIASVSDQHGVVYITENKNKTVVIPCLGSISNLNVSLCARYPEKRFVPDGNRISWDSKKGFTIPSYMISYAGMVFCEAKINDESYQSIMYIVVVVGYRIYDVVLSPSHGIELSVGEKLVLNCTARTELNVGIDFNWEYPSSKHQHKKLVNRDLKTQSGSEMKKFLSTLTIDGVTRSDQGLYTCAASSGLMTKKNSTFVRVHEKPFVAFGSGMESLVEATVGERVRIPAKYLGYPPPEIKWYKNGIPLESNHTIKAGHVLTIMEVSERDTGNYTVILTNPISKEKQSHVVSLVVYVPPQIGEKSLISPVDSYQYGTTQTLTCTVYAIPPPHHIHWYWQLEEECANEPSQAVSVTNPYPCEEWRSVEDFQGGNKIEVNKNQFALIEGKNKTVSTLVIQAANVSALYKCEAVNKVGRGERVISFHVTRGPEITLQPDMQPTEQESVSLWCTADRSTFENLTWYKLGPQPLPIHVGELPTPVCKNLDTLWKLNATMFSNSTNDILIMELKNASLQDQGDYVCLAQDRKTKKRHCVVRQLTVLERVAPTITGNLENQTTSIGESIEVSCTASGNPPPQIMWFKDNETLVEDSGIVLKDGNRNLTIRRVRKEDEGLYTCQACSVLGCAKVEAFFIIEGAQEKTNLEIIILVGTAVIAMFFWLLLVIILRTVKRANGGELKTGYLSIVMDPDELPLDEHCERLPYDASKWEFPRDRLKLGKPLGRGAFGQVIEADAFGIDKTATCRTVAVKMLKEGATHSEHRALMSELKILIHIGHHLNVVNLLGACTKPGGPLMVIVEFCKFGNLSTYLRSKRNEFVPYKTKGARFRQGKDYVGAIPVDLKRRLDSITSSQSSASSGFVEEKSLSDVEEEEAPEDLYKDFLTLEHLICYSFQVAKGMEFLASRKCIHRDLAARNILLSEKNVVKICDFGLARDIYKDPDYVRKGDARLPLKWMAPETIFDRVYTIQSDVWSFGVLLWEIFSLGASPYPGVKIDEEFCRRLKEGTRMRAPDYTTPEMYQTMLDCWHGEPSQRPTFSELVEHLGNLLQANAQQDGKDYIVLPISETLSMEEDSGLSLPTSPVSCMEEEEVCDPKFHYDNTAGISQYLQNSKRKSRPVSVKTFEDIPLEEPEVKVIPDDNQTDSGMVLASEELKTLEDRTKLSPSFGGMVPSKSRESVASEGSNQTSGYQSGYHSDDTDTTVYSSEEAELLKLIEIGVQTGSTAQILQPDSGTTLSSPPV

As to `Cn1c(SCc2cn([C@@H]3OC[C@@H](O)[C@H](O)[C@H]3O)nn2)nc2ccccc2c1=O` [Compound 13, 2-(((1-[β-D-Xylopyranosyl]-1 H-1,2,3-triazol-4-yl)methyl)thio)-3-methylquinazolin-4(3 H)-one], the IC50 was found to be 23.5 ± 2.3 µM in the assay on BJ-1 normal cell line; 3.2 ± 0.15 µM at VEGFR-2; 5.4 µM in the assay with HCT-116 cell line; 0.31 ± 0.06 µM against EGFR; 18.2 ± 2.2 µM in the assay on HepG-2 cell line; 7.9 ± 0.3 µM in the assay on MCF-7 cell line [3]. In the assay with Bax (24-hour treatment at 5.40 µM, control 4.53), this molecule gave a Bax/Bcl-2 of 72.83. In addition, the Bax in the assay on Bax (24-hour treatment at IC50 5.40 µM, control 33.85) is 229.40 pg/mL and 229.40 ± 1.62 pg/mL. Moreover, the “improvement in Bax values versus untreated control” value in the assay with Bax (24 h, 5.40 µM) amounted to 6.8 fold. In the assay with Bcl-2 (24-hour treatment at IC50 5.40 µM, control 7.48), the Bcl-2 is 3.15 ng/mL and 3.15 ± 0.22 ng/mL. The “reduction of Bcl-2 protein levels versus control” value with Bcl-2 (24 h, 5.40 µM) is on record as about 2.4 times. Further, the “stage of cell cycle arrest” value with HCT-116 cells [1] is on record as “G1 stage”. Moreover, the “%G2/M” value with HCT-116 cells [1] (5.40 µM, 24-hour treatment (Table S2 title: 48 h), control 13.24) is reported as 9.43%. In the assay on HCT-116 cells [1] (5.40 µM, 24-hour treatment (Table S2 title: 48 h), control 32.81), the “%S” value amounted to 22.46%. Moreover, in the assay with HCT-116 cells [1] (5.40 µM, 24-hour treatment (Table S2 title: 48 h), control 53.95), the “%G0-G1” value came to 68.11%. In the assay with p53 (24-hour treatment at IC50 5.40 µM, control 139.65), the P53 was 885.72 pg/mL and 885.72 ± 1.49 pg/mL. Also, the “enhancement of p53 protein levels versus control” value in the assay with p53 (24 h, 5.40 µM) is reported as 6.3 times. The “Apoptosis Late” value with HCT-116 cells [2] (DMSO control 0.14) amounted to 25.36%. In addition, the “Apoptosis Early” value with HCT-116 cells [2] (DMSO control 0.55) is 7.42%. In the assay on HCT-116 cells [2] (DMSO control 1.35), this molecule showed a Necrosis of 3.53%.
Turning to `COc1ccc(Cc2nnc(COc3ncnc4ccccc34)o2)cc1OC` [IV], the 50% inhibitory concentration (IC50) in the assay on MCF-7 cell line [4] was 0.23 µM.

One may read the IC50 as the point on the concentration scale where inhibition reaches its midpoint.

The values above are taken from PMC11500008, “Novel quinazolin-4-one based derivatives bearing 1,2,3-triazole and glycoside moieties as potential cytotoxic agents through dual EGFR and VEGFR-2 inhibitory activity” (Scientific Reports, 2024).
